Measured values reported in patent US12331044B2, “Inhibitors of histone deacetylase useful for the treatment or prevention of HIV infection” (Merck Sharp & Dohme LLC, priority 2018, dated 2025).
Read-outs that look alike come from different tables or passages of the source.

Columns and labels:
human HDAC2 = human HDAC2 (Homo sapiens (Human), UniProt Q92769); assay: HDAC2 inhibition assay (modified FLUOR DE LYS, 384-well); assay type: biochemical
human HDAC8 = human HDAC8 (Homo sapiens (Human), UniProt Q9BY41); assay: HDAC8 inhibition assay (modified FLUOR DE LYS, 384-well); assay type: biochemical
KARN cells (Jurkat 2C4) = assay: cells; conditions: Homo sapiens
human HDAC1 = human HDAC1 (Homo sapiens (Human), UniProt Q13547); assay: biochemical
[1] = target: human HDAC3/SMRT heterodimer (Homo sapiens (Human), UniProt O15379); assay: biochemical
HDAC6 = HDAC6 (Homo sapiens (Human), UniProt Q9UBN7); assay: biochemical
[2] = […] nM enzyme, 40 μM substrate BML-KI104, 3 h pre-incubation, read-out: HDAC2 IC50
[3] = […] nM enzyme, 200 μM substrate BML-KI178, 3 h pre-incubation, read-out: HDAC8 IC50
[4] = read-out: Karn EC50 nM 0.1% NHS, 0.1% normal human serum, luciferase induction, 2 μM SAHA = 100%
[5] = read-out: Karn EC50 nM 5% NHS, 5% normal human serum, luciferase induction, 2 μM SAHA = 100%

Sequence of HDAC6 (Q9UBN7 whole entry): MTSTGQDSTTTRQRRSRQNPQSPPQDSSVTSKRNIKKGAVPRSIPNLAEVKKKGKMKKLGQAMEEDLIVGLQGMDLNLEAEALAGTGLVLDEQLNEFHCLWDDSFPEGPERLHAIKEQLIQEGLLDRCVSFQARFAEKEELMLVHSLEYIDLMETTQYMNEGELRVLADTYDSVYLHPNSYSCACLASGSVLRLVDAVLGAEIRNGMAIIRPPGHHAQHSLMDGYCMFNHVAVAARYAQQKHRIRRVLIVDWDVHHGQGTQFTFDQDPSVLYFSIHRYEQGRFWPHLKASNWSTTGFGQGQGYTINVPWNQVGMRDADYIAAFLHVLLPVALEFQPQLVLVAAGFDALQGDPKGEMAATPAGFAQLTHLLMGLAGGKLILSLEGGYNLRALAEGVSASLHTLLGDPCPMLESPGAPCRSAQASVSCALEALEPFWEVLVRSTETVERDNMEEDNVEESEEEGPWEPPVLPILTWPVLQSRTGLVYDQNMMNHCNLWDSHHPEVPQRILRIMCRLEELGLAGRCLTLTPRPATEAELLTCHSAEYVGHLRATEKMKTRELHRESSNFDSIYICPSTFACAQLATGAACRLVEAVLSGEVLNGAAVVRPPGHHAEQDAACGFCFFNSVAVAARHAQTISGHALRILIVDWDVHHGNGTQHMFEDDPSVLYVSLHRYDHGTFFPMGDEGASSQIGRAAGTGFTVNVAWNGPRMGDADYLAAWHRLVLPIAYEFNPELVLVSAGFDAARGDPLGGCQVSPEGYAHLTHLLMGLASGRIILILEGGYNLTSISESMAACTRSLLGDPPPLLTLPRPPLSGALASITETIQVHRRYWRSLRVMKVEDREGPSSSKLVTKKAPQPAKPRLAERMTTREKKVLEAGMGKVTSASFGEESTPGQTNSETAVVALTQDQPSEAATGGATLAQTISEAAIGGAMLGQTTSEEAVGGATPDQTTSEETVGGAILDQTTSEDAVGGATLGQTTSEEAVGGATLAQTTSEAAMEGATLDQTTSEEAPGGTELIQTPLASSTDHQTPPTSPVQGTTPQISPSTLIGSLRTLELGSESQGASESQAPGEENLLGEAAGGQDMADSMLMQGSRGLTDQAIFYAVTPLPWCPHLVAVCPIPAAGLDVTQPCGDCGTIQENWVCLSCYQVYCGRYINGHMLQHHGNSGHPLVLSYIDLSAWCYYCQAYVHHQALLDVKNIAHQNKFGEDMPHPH
Sequence of human HDAC3/SMRT heterodimer (O15379 whole entry): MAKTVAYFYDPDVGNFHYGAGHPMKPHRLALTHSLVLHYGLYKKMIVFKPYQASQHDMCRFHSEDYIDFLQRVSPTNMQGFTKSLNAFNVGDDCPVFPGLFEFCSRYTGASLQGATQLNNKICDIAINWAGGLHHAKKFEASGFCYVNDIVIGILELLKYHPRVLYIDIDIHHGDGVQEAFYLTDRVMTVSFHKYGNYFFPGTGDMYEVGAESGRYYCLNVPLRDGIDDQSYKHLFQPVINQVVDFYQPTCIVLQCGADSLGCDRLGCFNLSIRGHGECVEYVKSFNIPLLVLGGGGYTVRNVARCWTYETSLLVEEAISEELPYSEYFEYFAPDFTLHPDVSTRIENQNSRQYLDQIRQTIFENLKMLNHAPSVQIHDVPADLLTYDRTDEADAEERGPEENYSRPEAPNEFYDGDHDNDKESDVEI
Sequence of human HDAC3/SMRT heterodimer (Q9Y618 1-899 partner): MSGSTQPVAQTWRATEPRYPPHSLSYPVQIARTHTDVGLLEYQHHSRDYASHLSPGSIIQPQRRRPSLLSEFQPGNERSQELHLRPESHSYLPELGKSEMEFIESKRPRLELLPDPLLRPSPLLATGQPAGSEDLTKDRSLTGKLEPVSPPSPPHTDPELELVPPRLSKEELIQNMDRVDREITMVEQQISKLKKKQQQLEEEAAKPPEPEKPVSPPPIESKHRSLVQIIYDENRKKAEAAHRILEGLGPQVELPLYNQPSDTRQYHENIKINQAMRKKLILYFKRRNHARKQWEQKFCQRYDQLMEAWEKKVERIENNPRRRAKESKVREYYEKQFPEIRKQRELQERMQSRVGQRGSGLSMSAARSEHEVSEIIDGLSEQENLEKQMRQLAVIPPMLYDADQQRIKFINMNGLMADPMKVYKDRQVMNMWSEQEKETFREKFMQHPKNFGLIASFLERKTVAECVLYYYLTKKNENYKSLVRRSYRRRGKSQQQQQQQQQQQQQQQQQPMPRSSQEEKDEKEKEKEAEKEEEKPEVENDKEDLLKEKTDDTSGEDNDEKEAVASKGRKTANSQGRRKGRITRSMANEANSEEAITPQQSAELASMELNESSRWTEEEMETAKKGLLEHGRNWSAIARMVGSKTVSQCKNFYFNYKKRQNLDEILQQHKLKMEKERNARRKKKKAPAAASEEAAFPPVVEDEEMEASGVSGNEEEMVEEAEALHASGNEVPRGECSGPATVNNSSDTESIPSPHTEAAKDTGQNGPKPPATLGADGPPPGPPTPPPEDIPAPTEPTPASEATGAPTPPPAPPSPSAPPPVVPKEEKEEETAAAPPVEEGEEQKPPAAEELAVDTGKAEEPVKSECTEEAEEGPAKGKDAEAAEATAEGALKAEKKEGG
Sequence of human HDAC2 (Q92769 whole entry): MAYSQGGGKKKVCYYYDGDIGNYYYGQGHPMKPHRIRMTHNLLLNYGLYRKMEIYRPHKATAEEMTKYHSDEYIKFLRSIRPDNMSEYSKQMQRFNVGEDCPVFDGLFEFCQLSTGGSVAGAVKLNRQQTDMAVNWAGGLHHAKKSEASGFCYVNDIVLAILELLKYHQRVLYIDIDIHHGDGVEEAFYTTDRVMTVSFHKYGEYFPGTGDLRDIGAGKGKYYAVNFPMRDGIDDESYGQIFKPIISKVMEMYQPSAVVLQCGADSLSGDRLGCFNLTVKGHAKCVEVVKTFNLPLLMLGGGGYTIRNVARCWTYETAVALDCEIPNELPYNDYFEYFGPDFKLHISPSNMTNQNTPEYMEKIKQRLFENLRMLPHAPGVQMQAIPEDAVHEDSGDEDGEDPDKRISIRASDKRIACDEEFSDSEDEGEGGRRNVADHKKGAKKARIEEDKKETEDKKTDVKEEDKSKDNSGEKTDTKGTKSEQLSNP
Sequence of human HDAC8 (Q9BY41 whole entry): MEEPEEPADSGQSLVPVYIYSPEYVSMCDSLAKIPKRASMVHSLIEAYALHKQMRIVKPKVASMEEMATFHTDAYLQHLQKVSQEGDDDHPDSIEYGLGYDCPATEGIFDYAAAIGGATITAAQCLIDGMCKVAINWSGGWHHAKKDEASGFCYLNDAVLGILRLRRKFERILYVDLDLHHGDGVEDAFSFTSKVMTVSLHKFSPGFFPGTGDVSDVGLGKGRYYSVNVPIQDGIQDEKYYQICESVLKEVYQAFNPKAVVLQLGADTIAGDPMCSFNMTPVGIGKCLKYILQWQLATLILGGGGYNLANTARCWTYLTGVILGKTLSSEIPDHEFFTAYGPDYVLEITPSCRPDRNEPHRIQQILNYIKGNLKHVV
Sequence of human HDAC1 (Q13547 whole entry): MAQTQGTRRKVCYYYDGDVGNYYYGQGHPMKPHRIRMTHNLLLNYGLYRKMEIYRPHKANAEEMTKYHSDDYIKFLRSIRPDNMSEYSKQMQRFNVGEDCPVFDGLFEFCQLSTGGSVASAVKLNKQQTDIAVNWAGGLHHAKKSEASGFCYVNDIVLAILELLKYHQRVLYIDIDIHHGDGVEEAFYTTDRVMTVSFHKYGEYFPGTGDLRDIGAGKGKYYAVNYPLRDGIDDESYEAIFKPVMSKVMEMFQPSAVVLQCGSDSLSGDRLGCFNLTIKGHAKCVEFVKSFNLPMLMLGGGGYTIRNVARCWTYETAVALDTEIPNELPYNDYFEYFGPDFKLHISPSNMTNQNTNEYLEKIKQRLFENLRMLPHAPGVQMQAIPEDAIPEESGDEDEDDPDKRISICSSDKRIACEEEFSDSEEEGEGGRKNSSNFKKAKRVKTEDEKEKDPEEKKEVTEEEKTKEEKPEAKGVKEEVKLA

| Compound | IC50 (human HDAC2; [2]) [nM] | IC50 (human HDAC8; [3]) [nM] | EC50 (KARN cells (Jurkat 2C4); [4]) [nM] | EC50 (KARN cells (Jurkat 2C4); [5]) [nM] | IC50 (human HDAC1) [µM] | IC50 [1] [µM] | IC50 (HDAC6) [µM] | IC50 (human HDAC2) [nM] | IC50 (human HDAC8) [nM] | EC50 (KARN cells (Jurkat 2C4); read-out: Karn EC50 nM 0.1% NHS) [nM] | EC50 (KARN cells (Jurkat 2C4); read-out: Karn EC50 nM 5% NHS) [nM] |
| --- | --- | --- | --- | --- | --- | --- | --- | --- | --- | --- | --- |
| CCn1ccc2cc(-c3c[nH]c([C@@H](N)CCCCCC(=O)c4ncco4)n3)ccc2c1=O [Example 10, (S)-6-(2-(1-amino-7-(oxazol-2-yl)-7-oxoheptyl)-1H-imidazol-4-yl)-2-ethylisoquinolin-1(2H)-one] | 9.9 | 2350 | 300 | 450 | 0.0026 | 0.0028 | ≥ 45 | – | – | – | – |
| N[C@@H](CCCCCC(=O)c1ncco1)c1ncc(-c2ccc3ncccc3c2)[nH]1 [Example 16, (S)-7-amino-1-(oxazol-2-yl)-7-(5-(quinolin-6-yl)-1H-imidazol-2-yl)heptan-1-one] | 8.8 | 1400 | 120 | 170 | 0.0027 | 0.0026 | 33 | – | – | – | – |
| COc1cc2ncccc2cc1-c1c[nH]c([C@@H](N)CCCCCC(=O)c2ncco2)n1 [Example 23, (S)-7-amino-7-(4-(7-methoxyquinolin-6-yl)-1H-imidazol-2-yl)-1-(oxazol-2-yl)heptan-1-one] | 9.5 | 660 | 100 | 210 | 0.0019 | 0.0018 | 31 | – | – | – | – |
| COc1nc(C2CC2)ccc1-c1c[nH]c([C@@H](N)CCCCCC(=O)c2ncco2)n1 [Example 24, (S)-7-amino-7-(4-(6-cyclopropyl-2-methoxypyridin-3-yl)-1H-imidazol-2-yl)-1-(oxazol-2-yl)heptan-1-one] | 39 | 3200 | 1400 | 2000 | 0.0071 | 0.0035 | ≥ 45 | – | – | – | – |
| N[C@@H](CCCCCC(=O)c1ncco1)c1[nH]c(-c2ccc(F)cc2)nc1Cl [Example 25, (S)-7-amino-7-(4-chloro-2-(4-fluorophenyl)-1H-imidazol-5-yl)-1-(oxazol-2-yl)heptan-1-one] | 5 | 6300 | 340 | 650 | 0.00066 | 0.00038 | ≥ 45 | – | – | – | – |
| Cc1ccc2cc(-c3cnc(C(N)CCCCCC(=O)c4ncco4)o3)ccc2n1 (stereo not drawn) [Example 26, 7-amino-7-(5-(2-methylquinolin-6-yl)oxazol-2-yl)-1-(oxazol-2-yl)heptan-1-one] | 35 | 8000 | 6200 | 6900 | 0.011 | 0.013 | ≥ 45 | – | – | – | – |
| COc1ncccc1-c1cnc([C@@H](N)CCCCCC(=O)c2ncco2)o1 [Example 28, (S)-7-amino-7-(5-(2-methoxypyridin-3-yl)oxazol-2-yl)-1-(oxazol-2-yl)heptan-1-one] | 32 | > 900 | 1900 | 2000 | 0.009 | 0.0094 | 0.655 | – | – | – | – |
| Cc1ccc2cc(-c3cn(C)c([C@@H](N)CCCCCC(=O)c4ncco4)n3)ccc2n1 [Example 29, (S)-7-amino-7-(1-methyl-4-(2-methylquinolin-6-yl)-1H-imidazol-2-yl)-1-(oxazol-2-yl)heptan-1-one] | 63 | 20000 | 1800 | 1800 | 0.015 | 0.018 | 5.16 | – | – | – | – |
| COc1cc2nc(C)ccc2cc1-c1c[nH]c([C@@H](N)CCCCCC(=O)c2ccon2)n1 [Example 31, (S)-7-amino-1-(isoxazol-3-yl)-7-(4-(7-methoxy-2-methylquinolin-6-yl)-1H-imidazol-2-yl)heptan-1-one] | 4.3 | 100 | 18 | 26 | 0.0014 | 0.0018 | 22 | – | – | – | – |
| Cc1ccc2cc(-c3c[nH]c([C@H](CCCCCC(=O)c4ncco4)NC4CCN(C)CC4)n3)ccc2n1 [Example 78, (S)-7-((1-methylpiperidin-4-yl)amino)-7-(5-(2-methylquinolin-6-yl)-1H-imidazol-2-yl)-1-(oxazol-2-yl)heptan-1-one] | – | – | – | – | 0.0028 | – | ≥ 45 | 8.3 | 6900 | 660 | 620 |
